Measured values published in paper PMC13371181, “A paracrine-to-autocrine shunt of GREM1 fuels colorectal cancer metastasis via ACVR1C” (Molecular Cancer, 2026).
Entries after “also recorded” stand apart in the source; their conditions may differ.

Experiments:
HCT116 cells = assay: Subcutaneous transplantation of GREM1-CM-pretreated HCT116 cells in nude mice; type: in vivo, human cells in nude mice; conditions: SB505124 10 mg/kg i.p. every other day
Experimental: For cecum-to-liver metastasis model, 1 × 10^6 MC38-luc cells were resuspended in 50 µL of PBS and injected into the cecum of GD mice or control mice (Grem1-CreER^T2/Rosa-LSL-DTA mice) (n = 6 mice in each group); 5 × 10^6 HCT116-luc cells transduced with lentivirus carrying a pLV or pLV-GREM1 were injected into the cecum of NOG mice (n = 5 mice in each group). SB505124 was administered via intraperitoneal injection at a dose of 10 mg/kg once every other day. The metastases were examined every 5 days post injection using an IVIS Lumina Imaging System. Mice were euthanized between 2 and 6 weeks after injection. […] Mice were euthanized 4 weeks after injection. The tumor tissues were collected for further evaluation.
Figure S8. SB505124 inhibits GREM1-CM-induced EMT and metastasis of CRC in vivo. […] D, RT–qPCR analysis of epithelial marker CDH1 and mesenchymal markers CTNNB1, SNAI1, ZEB1 in subcutaneous tumor tissues from the indicated treatment groups. n = 3 independent experiments. E-G, Representative IF images (E) and quantification (F, G) of E-CAD (green), SNAIL (red), and DAPI (blue) staining in tumors from the indicated groups. […] H, I, Representative IVIS images (H) and quantification (I) of NOG mice that were injected with HCT116-luc cells in the cecum wall and treated with either SB505124 or vehicle via abdominal injection. Liver metastases were imaged and quantified using the IVIS Lumina Imaging System (n = 5 mice per group). For B–D, F, G and I, data are presented as mean ± s.e.m. P values were calculated using one-way ANOVA with Bonferroni multiple-comparison test (B–D, F, and G) or two-tailed Student’s t-test (I).

SW480 cells = assay: GREM1 expression in SW480 cells after rhGREM1, RT–qPCR; type: cell-based, human; conditions: n = 3 biological replicates
Experimental: Total RNA was extracted using Trizol reagent (Invitrogen, 15596026). According to the instructions, cDNA was generated using the PrimeScript RT reagent Kit with gDNA Eraser (Accurate Biology, AG11706). The SYBR Green Premix Pro Taq HS qPCR Kit (Accurate Biology, AG11701) was then used to quantify mRNA expression according to the manufacturer’s instructions. All results were calculated using the 2^−ΔΔCt method. Primers used in the study are listed in Supplementary Table 1.

HCT116 and SW480 cells = assay: Transwell invasion assay; type: cell-based, human; conditions: HCT116 and SW480, Matrigel transwell, 48 h; n = 3 independent experiments
Experimental: To investigate the effect of secreted GREM1 on CRC cells, an in vitro GREM1 secretion system was established using HEK293 cells. Stably GREM1-expressing cells (pcDNA3.1-GREM1) and empty-vector transfected cells (pcDNA3.1) were cultured in DMEM/F12 medium with 10% FBS until 40% confluence. After complete removal of the normal culture medium, HEK293-GREM1 and HEK293-Vec cells were continuously cultured in DMEM/F12 medium without FBS for 5 days before medium collection. GREM1 or Vector conditioned medium (GREM1-CM/Vec-CM) was then centrifuged at 1000 rpm for 30 min and the supernatant was collected for further study.
Cells (1 × 10^5) were seeded in serum-free medium in the Matrigel-coated (Corning, 354480) transwell chambers (24-well insert, 8-µm pore size; BD Biosciences) for invasion experiments. The lower chamber was filled with RPMI1640 or DMEM containing 20% FBS. The migration of HCT116 and SW480 cells was measured in three random visual fields and quantified by microscopy after 48 h of incubation, followed by staining with DAPI or crystal violet. The invasive capacity of the cells was assessed using ImageJ software for quantification.

Cc1cccc(-c2[nH]c(C(C)(C)C)nc2-c2ccc3c(c2)OCO3)n1 [SB505124]
E-CAD and SNAIL expression in subcutaneous tumors (HCT116 cells; IF, n = 5 mice per group): restored E-CAD expression and suppressed SNAIL expression | subcutaneous tumor progression and EMT (HCT116 cells; nude mice, GREM1-CM-pretreated HCT116, n = 6 mice per group): suppressed tumor progression and EMT | rhGREM1-induced GREM1 expression, effect of inhibitor (SW480 cells): completely reversed the effect of rhGREM1 | GREM1-CM-induced invasion, effect of inhibitor (HCT116 and SW480 cells): abolished; also recorded: significantly reduced
